Laboratory results from patent publication US6815546B2, “Analogues of camptothecin, their use as medicaments and the pharmaceutical compositions containing them” (Societe de Recherches et d'Applications Scientifiques …, priority 1995, dated 2004).

Molecular target: T1, DNA topoisomerase 1 of purified calf thymus (Bos taurus, UniProt F1MN93)
T1 construct: DNA topoisomerase 1 of purified calf thymus (Gibco-BRL, Paisley, United Kingdom); purchased Gibco-BRL, Paisley, United Kingdom; host or cells: calf thymus tissue
T1 sequence (F1MN93 1-767): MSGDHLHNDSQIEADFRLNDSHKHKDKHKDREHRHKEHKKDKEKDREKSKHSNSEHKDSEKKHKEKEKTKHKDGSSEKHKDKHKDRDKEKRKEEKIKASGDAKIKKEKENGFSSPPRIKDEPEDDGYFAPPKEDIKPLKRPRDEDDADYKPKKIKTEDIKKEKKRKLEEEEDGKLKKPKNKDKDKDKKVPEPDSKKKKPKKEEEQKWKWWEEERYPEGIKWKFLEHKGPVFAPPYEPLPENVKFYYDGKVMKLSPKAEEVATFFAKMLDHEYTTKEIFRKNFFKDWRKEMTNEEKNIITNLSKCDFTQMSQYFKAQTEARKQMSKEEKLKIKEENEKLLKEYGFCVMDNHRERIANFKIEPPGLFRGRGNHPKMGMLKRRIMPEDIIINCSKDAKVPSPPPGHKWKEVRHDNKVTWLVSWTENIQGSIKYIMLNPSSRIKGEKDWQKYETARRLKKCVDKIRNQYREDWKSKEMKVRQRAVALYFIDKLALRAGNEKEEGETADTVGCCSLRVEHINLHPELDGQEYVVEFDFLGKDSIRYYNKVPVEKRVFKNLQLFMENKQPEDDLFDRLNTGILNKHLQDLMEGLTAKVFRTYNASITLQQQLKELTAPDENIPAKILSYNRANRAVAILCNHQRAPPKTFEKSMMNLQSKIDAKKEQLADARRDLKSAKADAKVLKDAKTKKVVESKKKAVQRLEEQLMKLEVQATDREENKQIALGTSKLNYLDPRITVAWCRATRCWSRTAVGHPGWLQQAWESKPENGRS
Assay: Relaxation activity test of DNA induced by topoisomerase 1
Type: biochemical
Details: supercoiled pUC19, 15 minutes at 37° C.
Description: 1. Relaxation Activity Test of DNA Induced by Topoisomerase 1
All the reactions are carried out in a 20 μl reaction buffer constituted by 50 mM of Tris-HCl (pH 7.5), 50 mM of KCl, 0.5 mM of dithiothreitol, 10 mM of MgCl2, 0.1 mM of ethyldiamine tetraacetic acid (EDTA), 30 μg/ml of bovine serum albumin and 300 ng of supercoiled pUC19 (Pharmacia Biotech, Orsay, France) with or without the compounds to be tested at defined concentrations. All the compounds to be tested are initially dissolved in dimethylsulphoxide (DMSO) at 50 mM, the other dilutions being carried out with distilled water. […] The reaction is initiated by the addition of a unit of DNA topoisomerase 1 of purified calf thymus (Gibco-BRL, Paisley, United Kingdom) and is carried out for 15 minutes at 37° C. The reactions are stopped by the addition of 3 μl of a mixture containing 1% dodecyl sodium sulphate at 1%, 20 mM of EDTA and 500 μg/ml of K proteinase (Boehringer Mannheim, Meylan, France). After an additional incubation period of 30 minutes at 37° C., 2 μl of a loading buffer containing 10 mM of Na2HPO4, 0.3% of bromophenol blue et 16% Ficoll are added to samples which are subjected to electrophoresis in agarose gels at 1.2% at 1 V/cm for 20 hours in a buffer containing 36 mM of Tris-HCl at pH 7.8, 30 mM of Na2HPO4, 1 mM of EDTA and 2 μg/ml of chloroquine. The gels are stained with 2 μg/ml of ethidium bromide, photographed under UV light at 312 nm with a camera and the fluorescent intensity is measured with a bioProfil camera (Vilber Lournat, Lyon, France) with a view to determining the percentage of relaxed DNA. Each experiment is carried out at least three times in duplicate.
In each experiment, the supercoiled plasmid DNA is incubated alone or with topoisomerase 1. The reaction is completed within 15 minutes. For each compound to be tested or control, the supercoiled plasmid DNA is incubated in the presence of 500 μM of compound to be tested with enzyme or without enzyme plus the compound to be tested, at concentrations of 10 μM, 100 μM, 200 μM and 500 μM.

SMILES	PERCENTAGE OF RELAXED DNA (10 μM compound) [%]	PERCENTAGE OF RELAXED DNA (100 μM compound) [%]	PERCENTAGE OF RELAXED DNA (200 μM compound) [%]	PERCENTAGE OF RELAXED DNA (500 μM compound) [%]
CCC1(O)CC(=O)OCc2c1cc1n(c2=O)Cc2cc3ccccc3nc2-1 (centres unmarked) [Example 3, 5-ethyl-5-hydroxy-1,4,5,13-tetrahydro-3H,15H-oxepino [3′,4′:6,7]indolizino[1,2-b]quinoline-3,15-dione]	79.9	59.9	55.0	45.7
CCC1(O)CC(=O)OCc2c1cc1n(c2=O)Cc2cc3cc4c(cc3nc2-1)OCCO4 (centres unmarked) [Example 11, 8-ethyl-8-hydroxy-2,3,8,9,12,15-hexahydro-10H,13H-[1,4]dioxino [2,3-g]oxepino[3′,4′:6,7]indolizino[1,2-b]quinoline-10,13-dione]	65.0	50.3	39.8	31.0
CCC(O)(CC(=O)O)c1cc2n(c(=O)c1CO)Cc1cc3ccccc3nc1-2 (centres unmarked) [Example 4, 3-hydroxy-3-[8-(hydroxymethyl)-9-oxo-9,11-dihydroindolizino [1,2-b]quinolin-7-yl]pentanoic acid]	99.1	82.2	67.6	32.9
CCc1c2c(nc3ccccc13)-c1cc3c(c(=O)n1C2)COC(=O)CC3(O)CC (centres unmarked) [Example 9, 5,12-diethyl-5-hydroxy-1,4,5,13-tetrahydro-3H,15H-oxepino[3′,4′:6,7]indolizino[1,2-b]quinoline-3,15-dione]	77.1	33.9	29.7	20.4
CCc1c2c(nc3ccccc13)-c1cc(C(O)(CC)CC(=O)O)c(CO)c(=O)n1C2 (centres unmarked) [Example 10, 3-[12-ethyl-8-(hydroxymethyl)-9-oxo-9,11-dihydroindolizino[1,2-b]quinolin-7-yl]-3-hydroxypentanoic acid]	96.9	45.4	26.2	8.7
